# Measurements reported in patent US9707220B2 (The United States of America, as represented by the …, priority 2005, dated 2017).
# Values joined by “and” are separate entries in the source; they are usually repeats but may differ in a detail not shown here. Equal values may be shown once. Marks after values point to notes of the source that are not given here.
# What was measured:
# Format in all cases: in vivo, human
# [1] = test system: unmedicated, currently depressed patients meeting the DSM-IV criteria for Major Depressive Disorder (MDD) or Bipolar Disorder (BD); experiment: Example 2: double-blind, placebo-controlled, randomized cross-over study, Hamilton Anxiety Scale
# Source text: (§1) Session one was designed to be single-blind during which all subjects received a placebo infusion to allow for a baseline evaluation. The next six sessions were separated into two blocks of three sessions each; one block included a series of three placebo infusions (P Block) and the other a series of three scopolamine infusions (S Block). Individuals were randomized into either the P/S (placebo/scopolamine) series or the S/P (scopolamine/placebo) series, using a double-blind design. In total, all subjects received four placebo infusions and three scopolamine infusions. Prior to infusion, unstructured psychiatric interviews were completed using the Montgomery & Asberg Depression Rating Scale (MADRS) and the Hamilton Anxiety Scale to provide evaluations of depression and anxiety severity upon entering the study (i.e., baseline 1); following the first infusion as an assessment of placebo effects (i.e., baseline 2); after all infusions associated with block 1 (i.e., last evaluation block 1); and after all infusions associated with block 2 (i.e., last evaluation block 2) obtained during a follow-up psychiatric interview. Sessions were scheduled a minimum of 3 days apart and a maximum of 5 days apart when possible.
# (§2) Patient diagnosis and features that contribute to prognosis, including history of response to conventional treatment, chronicity and comorbid anxiety disorders, are summarized in Table III.
# (§3) Session one was designed to be single-blind during which all subjects received a placebo infusion to allow for a baseline evaluation in all subjects. Subsequently, individuals were randomized into either an P/S or S/P double-blind design whereby P is defined as a series of three sessions during which participants received placebo and S is defined as a series of three sessions during which participants received scopolamine. […] Prior to each infusion, unstructured psychiatric interviews were completed using the MADRS and the Hamilton Anxiety Scale. Sessions were scheduled a minimum of 3 days apart and a maximum of 5 days apart when possible. Follow-up psychiatric interviews were obtained to assess the effects of session seven. […] Repeated measures ANOVA was used to evaluate session differences, group differences and session X group effects. In the presence of significant ANOVA results, t-tests were used for within and between group comparisons to identify specific effects.
# [2] = test system: unmedicated, currently depressed patients meeting the DSM-IV criteria for Major Depressive Disorder (MDD) or Bipolar Disorder (BD); experiment: Example 2: double-blind, placebo-controlled, randomized cross-over study, MADRS depression severity
# Source text: as §1, §2, §3
# [3] = test system: unmedicated, currently depressed patients meeting criteria for Major Depressive Disorder (MDD) or Bipolar Disorder (BD); experiment: Example 1: double-blind randomized dose-finding study, 15-minute intravenous scopolamine infusions, MADRS depression severity in patients; design: key to MADRS score, Follow-up / MADRS score, Session 3, Pt. MEAN / MADRS score, Session 4, Pt. MEAN / MADRS score, Follow-up, Pt. MEAN / MADRS score, Post 2 μg/kg / MADRS score, Post 3 μg/kg / MADRS score, Post 4 μg/kg / MADRS score, Post 2 μg/kg, MEAN / MADRS score, Post 3 μg/kg, MEAN: Montgomery & Asberg Depression Rating Scale (MADRS) total score
# Protocol: Prior to each infusion, a psychiatric interview was performed using the Montgomery & Asberg Depression Rating Scale (MADRS) to monitor depression severity across sessions. Participants were monitored continuously for the development of clinically relevant side effects. Sessions were scheduled a minimum of 3 days apart and a maximum of 5 days apart when possible. Follow-up psychiatric interviews were obtained when patients were available.
# Comparisons also were made between MADRS scores obtained before and after each specific dose. […] Post evaluations for the last session were provided by the follow-up psychiatric interviews when available.
# [4] = both treatment groups, no change following placebo
# [5] = 4.0 μg/kg iv, three infusions, p<0.005
smiles,measurement,setting,value
CN1C2C[C@H](OC(=O)C(CO)c3ccccc3)CC1[C@H]1OC21 (stereo partly shown) [scopolamine],"Hamilton Anxiety rating, P/S group at end of Block 2 (scopolamine) vs baseline 1, baseline 2 and end of Block 1","[1]; 4.0 μg/kg iv, three infusions, p<0.001, p=0.02, p=0.002",significantly lower
same,"Hamilton Anxiety rating, S/P group at end of Block 1 (scopolamine) vs baseline measures","[1]; 4.0 μg/kg iv, three infusions, p<0.01",significantly lower
same,"Hamilton Anxiety score, S/P group vs P/S group at last evaluation of Block 1","[1]; 4.0 μg/kg iv, three infusions, t=7.29, p=0.04",significantly lower
same,"Anxiety symptoms (mean Hamilton Anxiety scores, FIG. 3) following treatment",[1]; [4],significant improvement
same,"Hamilton Anxiety rating, S/P group at end of Block 2 (placebo after scopolamine) vs baseline","[1]; persistence of effect, p=0.01",significantly lower
same,"MADRS depression severity, P/S group at end of Block 2 (scopolamine) vs baseline measures and end of Block 1",[2]; [5],significantly lower
same,"MADRS depression severity, S/P group at end of Block 1 (scopolamine) vs baseline 1 and baseline 2",[2]; [5],significantly lower
same,"MADRS depression severity, S/P group vs P/S group at last evaluation of Block 1","[2]; 4.0 μg/kg iv, three infusions, t=5.3, p<0.0001",significantly lower
same,"Depressive symptoms (mean MADRS scores, FIG. 2) following treatment",[2]; [4],significant improvement
same,"MADRS depression severity, S/P group at end of Block 2 (placebo after scopolamine) vs baseline measures","[2]; persistence of effect, p<0.005",significantly lower
same,"MADRS score, Follow-up","[3]; individual patient, follow-up interview after all four sessions",37 and 16 and 2 and 9 and 14
same,"MADRS score, Session 2","[3]; individual patient, scored before the Session 2 infusion, after the Session 1 dose, iv 2, 3 or 4 μg/kg or placebo in random order, sessions 3-5 days apart",36^d and 44^a and 25^a and 32^C and 18^b and 29^C and 15^d
same,"MADRS score, Session 3","[3]; individual patient, scored before the Session 3 infusion, after two earlier sessions, doses in random order",35^b and 34^d and 31^b and 4^C and 25^a and 14^a and 22^d and 7^a
same,"MADRS score, Session 4","[3]; individual patient, scored before the Session 4 infusion, after three earlier sessions, doses in random order",35^a and 22^b and 32^d and 8^d and 28^d and 11^d and 17^a and 7^b
same,"MADRS score, Post 2 μg/kg","[3]; individual patient, scored in the next session, 3 to 5 days after 2 μg/kg iv",37 and 32 (2×) and 4 and 14 and 29 and 35
same,"MADRS score, Post 3 μg/kg","[3]; individual patient, scored in the next session, 3 to 5 days after 3 μg/kg iv",44 and 25 (2×) and 8 and 18 and 22 and 15 and 36
same,"MADRS score, Post 4 μg/kg","[3]; individual patient, scored in the next session, 3 to 5 days after 4 μg/kg iv",22 and 16 and 2 and 9 and 14 and 17 and 7 and 35
same,"MADRS score, Session 3, Pt. MEAN","[3]; mean of 8 patients, irrespective of session dose",21.5
same,"MADRS score, Session 4, Pt. MEAN","[3]; mean of 8 patients, irrespective of session dose, significantly less than baseline, p < 0.05",20.0*
same,"MADRS score, Follow-up, Pt. MEAN","[3]; mean of patients with follow-up, significantly less than baseline, p < 0.05",15.6*
same,MADRS scores post 4.0 μg/kg compared to baseline and pre-4.0 μg/kg measures,"[3]; p=0.0015 vs baseline, p=0.018 vs pre-dose",significantly lower
same,MADRS scores following session four compared to session one baseline,"[3]; patient group, post-hoc t-test, p=0.01",significantly lower
same,MADRS scores following session three compared to session one baseline,"[3]; patient group, post-hoc t-test, p=0.03",significantly lower
same,"Antidepressant effect, MADRS across sessions (summary)","[3]; patient group, effect primarily after the 4.0 μg/kg dose",robust and rapid antidepressant effects
same,"MADRS score, Post 2 μg/kg, MEAN","[3]; patient mean, baseline mean 29.00, pre-dose mean 22.38",26.14
same,"MADRS score, Post 4 μg/kg, MEAN","[3]; patient mean, baseline mean 29.00, pre-dose mean 23.25, p = 0.0015 vs baseline, p = 0.018 vs pre-session",15.25^#*
same,"MADRS score, Post 3 μg/kg, MEAN","[3]; patient mean, baseline mean 29.00, pre-dose mean 27.63",24.13
same,MADRS scores post 2.0 and 3.0 μg/kg compared to baseline and pre-dose,"[3]; t-tests, patient group",No other differences were significant
